Source: patent publication US20230165876A1, “METHYLTHIONINIUM COMPOUNDS FOR USE IN THE TREATMENT OF COVID-19” (WisTa Laboratories Ltd., priority 2020, published 2023)
Where a SMILES comes first, the peptide text is derived from it. The star is where a group is joined. Cbz = O=C(OCc1ccccc1)*; CHN2 = [N-]=[N+]=C*

Experiments:
SARS-CoV-2 [1] = settings: Vero E6 cells; screen concentration 5 µM; cited from earlier work
[2] = Oral doses with anti-viral activity and LMTM equivalent calculated from AD activity data; parameters: species or system human; settings: calculated using the activity data in AD as basis for comparison
[3] = LMTM in AD; cited from earlier work
Complex IV = settings: tau transgenic mouse model; cited from earlier work
red cells = settings: administered intravenously; LMTM relative to MTC; cited from earlier work
[4] = Phase 3 double-blind controlled studies of LMTM in AD and bvFTD, safety; assay type: in vivo, human
Procedure: Three Phase 3, double-blind, controlled studies of LMTM have been completed (one each in subjects with mild and mild to moderate AD and one in subjects with bvFTD). Results of the AD studies have been published (Gauthier et al., 2016; Wilcock et al., 2018; Shiells et al., 2020). These studies provide an overview of the more common adverse events that might be expected at a dose of LMTM 16 mg/day. In these three studies, 1897 subjects received at least one dose of LMTM. Of these, 860 subjects received LMTM 8 mg/day and 1037 subjects received at least one dose of LMTM in the higher doses of 150 to 250 mg/day. The mean ages of study participants were 71 years (ranging up to 89 years) for subjects with AD and 63 years (ranging up to 79 years) for subjects with bvFTD.
The overall person-years of exposure to LMTM 8 mg/day was 995.2 person-years and to the higher LMTM doses of 150 to 250 mg/day was 988.6 person-years. Six percent (6%) of the subjects discontinued LMTM 8 mg/day due to adverse events; the proportion of subjects discontinuing due to adverse events in the higher dose groups was higher (14%).
The most common Treatment-Emergent Adverse Events (TEAEs) considered at least possibly associated with LMTM given in a dose of 8 mg/day were gastrointestinal (mostly diarrhoea and nausea), genitourinary (mostly pollakiuria and urinary incontinence), haematologic (anaemia, decreased folate, and folate deficiency), and nervous system related (mostly fatigue, dizziness, headache, agitation, and insomnia).
In summary, therefore, the safety of LMTM has been studied in over 2400 patients in Phase 1 and Phase 3 trials at repeat doses up to 450 mg/day. Even at the highest doses examined, the safety profile of LMTM remains benign and consistent with further clinical development.

[5] = LMTM relative to MTC; cited from earlier work
SARS-CoV-2 [6] = settings: advanced COVID-19 cases, treated vs not treated; cited from earlier work
SARS-CoV = settings: cited from earlier work
SARS-CoV-2 [7] = settings: cited from earlier work
SARS-CoV-2 [8] = settings: 20 COVID-19 patients; cited from earlier work

## Cc1cccc(/C=N/Nc2cc(N3CCOCC3)nc(OCCc3ccccn3)n2)c1 [Apilimod]
SARS-CoV-2 [1]
  inhibition of viral replication: inhibited viral replication

## CN(C)c1ccc2c(c1)Sc1cc(N(C)C)ccc1N2.CS(=O)(=O)O.CS(=O)(=O)O [LMTM, N,N,N′,N′-tetramethyl-10H-phenothiazine-3,7-diaminium bis(hydromethanesulfonate)]
[2]
  equivalent doses of LMTM: 12 - 27 mg/MT per day
[3]
  minimum effective dose required for anti-dementia effects: 8 mg/day
  optimally effective dose: 16 mg/day
Complex IV
  brain Complex IV activity: enhance brain Complex IV activity
Cardiotoxicity
  cardiotoxicity: does not have the cardiotoxicity
Red cells
  better uptake into red cells: 20 fold
[4]; LMTM 8 mg/day
  change in RBC count, haemoglobin and haematocrit: minimal change
  subjects discontinued due to adverse events: 6%
[4]; Phase 3 studies
  vital sign measurements, ECGs, or the C-SSRS: No clinically meaningful trends
[4]; greater decreases in the higher dose groups (150 to 250 mg/day) compared to 8 mg/day
  RBC count, haemoglobin and haematocrit: dose-dependent decreases
[4]; higher LMTM doses of 150 to 250 mg/day
  subjects discontinuing due to adverse events: 14%
[4]; higher LMTM doses, 150 to 250 mg/day
  incidence of anaemia-related TEAEs, gastrointestinal events and genitourinary events: dose-related increase
[4]; over 2400 patients in Phase 1 and Phase 3 trials, repeat doses up to 450 mg/day
  safety profile: benign
[5]
  better brain:plasma ratio: more than 60 fold

## CC(C)(O)c1ccc2c(c1)/C(=C/CCN1CC[C@](O)(c3ccc(Cl)cc3)C(C)(C)C1)c1cccnc1CO2 [MLN-3897]
SARS-CoV-2 [1]
  inhibition of viral replication: inhibited viral replication

## C[C@@H]1CS/C(=N\NC(=O)C(=O)[C@@H](NC(=O)C2CCCCCC2)C2CCOCC2)N1C [ONO 5334]
SARS-CoV-2 [1]
  inhibition of viral replication: inhibited viral replication

## CC[C@H](NC(=O)[C@H](CS(=O)(=O)CC1CC1)N[C@@H](c1ccc(F)cc1)C(F)(F)F)C(=O)C(=O)NC1CC1 [VBY-825]
SARS-CoV-2 [1]
  inhibition of viral replication: inhibited viral replication

## CC(C)CC(NC(=O)OCc1ccccc1)C(=O)NC(C(=O)NCC(=O)C=[N+]=[N-])C(C)C (stereo not drawn) [Z LVG CHN2] (Cbz-Leu-Val-Gly-CHN2; configuration not given here)
SARS-CoV-2 [1]
  inhibition of viral replication: inhibited viral replication

## CCN(CC)CCCC(C)Nc1ccnc2cc(Cl)ccc12 (centres unmarked) [chloroquine]
SARS-CoV-2 [6]
  benefit in advanced cases (mortality rates): no benefit
SARS-CoV
  effectiveness against SARS-CoV in vitro: effectiveness
SARS-CoV-2 [7]
  effectiveness against SARS-CoV-2 in vitro: effectiveness

## CCN(CCO)CCCC(C)Nc1ccnc2cc(Cl)ccc12 (centres unmarked) [hydroxychloroquine]
SARS-CoV-2 [8]
  viral load in nasal swabs: significantly reduced viral load
